Laboratory results published in article PMC5624946, “Extrapyramidal side effects of antipsychotics are linked to their association kinetics at dopamine D2 receptors” (Nature Communications, 2017).
Structures can show the parent of a compound that is named as a salt. Where two headings read alike, the source gives them in different places.

Tests used:
human D2L receptors [1] = molecular target: T1, human D2L receptors (Homo sapiens, UniProt P14416); test: Competition kinetic binding with PPHT-red tracer (TR-FRET, Motulsky-Mahan); details: for t 1/2: dissociation half-life from k off
T1 sequence (P14416 whole entry): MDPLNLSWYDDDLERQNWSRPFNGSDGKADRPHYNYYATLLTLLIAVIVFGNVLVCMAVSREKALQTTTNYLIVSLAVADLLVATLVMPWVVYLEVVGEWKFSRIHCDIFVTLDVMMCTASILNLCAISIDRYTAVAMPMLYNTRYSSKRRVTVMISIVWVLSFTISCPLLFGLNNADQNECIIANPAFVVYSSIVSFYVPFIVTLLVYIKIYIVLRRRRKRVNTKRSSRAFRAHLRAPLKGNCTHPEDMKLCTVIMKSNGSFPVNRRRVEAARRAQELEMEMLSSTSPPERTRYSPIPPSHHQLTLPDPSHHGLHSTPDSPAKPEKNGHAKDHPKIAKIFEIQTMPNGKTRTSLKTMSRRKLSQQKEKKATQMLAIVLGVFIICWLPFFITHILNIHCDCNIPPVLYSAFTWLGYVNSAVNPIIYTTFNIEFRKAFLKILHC

[2] = clinical; cited from earlier work
human D2L receptors [3] = molecular target: T1, human D2L receptors; test: Equilibrium competition binding with PPHT-red (TR-FRET)
human D2L receptors [4] = molecular target: T1, human D2L receptors; test: biochemical
human D2L receptors [5] = molecular target: T1, human D2L receptors
D2R = D2R (Homo sapiens, UniProt P14416); test: biochemical
Sequence of D2R (P14416 whole entry): as above

[6] = cited from earlier work
[7] = 37 °C, 100 μM GppNHp, 12.5 nM PPHT-red tracer, CHO-D2L membranes, mean ± s.e.m., four experiments

Molecule | t 1/2 (human D2L receptors [1]) | Ki (human D2L receptors [3]) | Kd (human D2L receptors [4]) | other results
CN1CC2c3ccccc3Oc3ccc(Cl)cc3C2C1 (centres unmarked) [Asenapine, asenapine maleate] | 0.75 min |  |  | 
O=C1CCc2ccc(OCCCCN3CCN(c4cccc(Cl)c4Cl)CC3)cc2N1 [aripiprazole] |  |  |  | propensity to cause prolactin release, in words [2]: very little propensity to cause prolactin release
(+)-butaclamol [(+)Butaclamol] |  |  |  | t 1/2 (human D2L receptors [5]): 26.65 min
O=C(CCCN1CCC2(CC1)C(=O)NCN2c1ccccc1)c1ccc(F)cc1 [Spiperone, spiperone] | 18.24 min |  |  | 
CNc1cc(OC)c(C(=O)NC2CCN(Cc3ccccc3)C2C)cc1Cl (centres unmarked) [Nemonapride, nemonapride] | 38.50 min |  |  | 
OCCOCCN1CCN(C2=Nc3ccccc3Sc3ccccc32)CC1 [Quetiapine, quetiapine hemifumarate] |  |  |  | plasma half-life, in words [6]: short
Cc1nc2n(c(=O)c1CCN1CCC(c3noc4cc(F)ccc34)CC1)CCCC2O (centres unmarked) [Paliperidone, paliperidone] | 1.58 min | 2.88 nM | 2.51 nM | k off (human D2L receptors [1]; [7]): 0.00733 ± 0.00067 s⁻¹; k on (human D2L receptors [1]; [7]): 1.80 ± 0.29 × 10^8 M^−1 min^−1; k off (D2R): 0.0075 s⁻¹

The next lines start with results.

t 1/2 (human D2L receptors [1]) | Ki (human D2L receptors [3]) | Kd (human D2L receptors [4]) | Molecule | other results
1.17 min |  |  | O=C1NCCN1CCN1CCC(c2cn(-c3ccc(F)cc3)c3ccc(Cl)cc23)CC1 [Sertindole, sertindole] | 
0.49 min |  |  | CN(C)CCOC1=Cc2ccccc2Sc2ccc(Cl)cc21 [Zotepine, zotepine] | 
0.65 min |  |  | O=C1Cc2cc(CCN3CCN(c4nsc5ccccc45)CC3)c(Cl)cc2N1 [Ziprasidone, ziprasidone hydrochloride monohydrate] | 
3.15 min | 0.331 nM | 0.204 nM | CN1CCN(CCCN2c3ccccc3Sc3ccc(C(F)(F)F)cc32)CC1 [Trifluoperazine, trifluoperazine dihydrochloride] | k off (human D2L receptors [5]): 0.00367 ± 0.00017 s⁻¹; k on (human D2L receptors [5]): 1.10 ± 0.20 × 10^9 M^−1 min^−1
17.33 min |  |  | OCCN1CCN(CCCN2c3ccccc3Sc3ccc(C(F)(F)F)cc32)CC1 [Fluphenazine, fluphenazine dihydrochloride] | 
0.41 min | 26.9 nM | 20.4 nM | CCc1c(C)[nH]c2c1C(=O)C(CN1CCOCC1)CC2 (centres unmarked) [Molindone, molindone hydrochloride] | k off (human D2L receptors [1]; [7]): 0.0282 ± 0.0075 s⁻¹; k on (human D2L receptors [1]; [7]): 8.69 ± 2.6 × 10^7 M^−1 min^−1; k off (D2R): 0.0282 s⁻¹
 | 0.209 nM | 0.214 nM | OCCN1CCN(CCC=C2c3ccccc3Sc3ccc(C(F)(F)F)cc32)CC1 [Flupenthixol, flupenthixol dihydrochloride] | k off (human D2L receptors [1]): 0.0012 ± 0.000167 s⁻¹; k on (human D2L receptors [1]): 3.50 ± 0.72 × 10^8 M^−1 min^−1; t 1/2 (human D2L receptors [5]): 9.63 min
1.82 min | 0.102 nM | 0.195 nM | O=C(CCCN1CC=C(n2c(=O)[nH]c3ccccc32)CC1)c1ccc(F)cc1 [Droperidol, droperidol] | k off (human D2L receptors [1]; [7]): 0.00633 ± 0.00067 s⁻¹; k on (human D2L receptors [1]; [7]): 2.01 ± 0.38 × 10^9 M^−1 min^−1
0.32 min |  |  | CN1CCN(C2=Nc3ccccc3Oc3ccc(Cl)cc32)CC1 [Loxapine, loxapine succinate] | 
1.31 min |  |  | CCN1CCC[C@H]1CNC(=O)c1c(O)c(Cl)cc(Cl)c1OC [Raclopride, raclopride] | 
3.01 min | 0.295 nM | 0.186 nM | OCCN1CCN(CCCN2c3ccccc3Sc3ccc(Cl)cc32)CC1 [Perphenazine, perphenazine] | k off (human D2L receptors [1]; [7]): 0.00383 ± 0.00033 s⁻¹; k on (human D2L receptors [1]; [7]): 1.29 ± 0.17 × 10^9 M^−1 min^−1
